Reference: ChEMBL document CHEMBL5096229, “A 1,2,3-Triazole Derivative of Quinazoline Exhibits Antitumor Activity by Tethering RNF168 to SQSTM1/P62” (J Med Chem, 2022)
Calls of active or inactive are those of the source. No cut-off for these calls is given here.

Assays:
[1] = Toxicity in BALB/c mouse assessed as animal death at 100 mg/kg, ip after 7 days; type: organism-based; conditions: in vivo, 168 h, time 7 day
[2] = Half life in BALB/c mouse at 10 mg/kg; type: ADME, organism-based; conditions: in vivo
[3] = Clearance in BALB/c mouse at 10 mg/kg; type: ADME, organism-based; conditions: in vivo
HCT-116 [4] = test: Induction of cell cycle arrest in human HCT-116 cells assessed as accumulation at G2/M phase at 1 uM after 24 hrs by propidium iodide-staining based flow cytometry (reference value: 23.25 +/- 1.38%); type: functional
HCT-116 [5] = test: Antitumor activity against human HCT-116 cells xenografted in ip dosed BALB/c nude mouse assessed as tumor growth inhibition; type: functional, organism-based; conditions: dose 5.0 mg/kg, DDE = dose-dependent effect
Sequestosome-1 [6] = molecular target: T1, Sequestosome-1 (Homo sapiens, UniProt Q13501); test: Binding affinity to N-terminal P62 LB domain (unknown origin) expressed in HEK293T cells; type: cell-based; conditions: filed as activator
T1 sequence (Q13501 whole entry, the tested form may be a part): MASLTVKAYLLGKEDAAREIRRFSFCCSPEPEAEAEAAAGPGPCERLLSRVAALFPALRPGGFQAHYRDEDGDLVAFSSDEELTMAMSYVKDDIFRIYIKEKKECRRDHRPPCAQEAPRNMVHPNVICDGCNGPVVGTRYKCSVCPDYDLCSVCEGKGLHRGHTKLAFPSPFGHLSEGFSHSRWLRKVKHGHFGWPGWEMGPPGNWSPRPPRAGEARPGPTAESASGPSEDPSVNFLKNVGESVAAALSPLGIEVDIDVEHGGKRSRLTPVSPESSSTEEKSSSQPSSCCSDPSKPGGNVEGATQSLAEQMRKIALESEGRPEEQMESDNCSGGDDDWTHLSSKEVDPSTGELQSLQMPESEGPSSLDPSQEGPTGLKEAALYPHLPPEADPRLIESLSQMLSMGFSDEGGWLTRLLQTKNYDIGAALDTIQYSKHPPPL

[7] = Toxicity in BALB/c nude mouse assessed as animal death 25 mg/kg, ip after 7 days; type: organism-based; conditions: in vivo, 168 h, time 7 day
U2OS [8] = test: Inhibition of NHEJ-mediated double strand break repair in human U2OS cells pretreated with I-SceI for 36 hrs followed by compound addition and measured after 12 hrs; type: functional, cell-based; conditions: dose 0.625-2.5 µM, DDE = dose-dependent effect
[9] = Cmax in BALB/c mouse at 5 mg/kg; type: ADME, organism-based; parameters: dose 5 mg/kg; conditions: in vivo
[10] = Toxicity in BALB/c mouse assessed as diarrhea at less than 50 mg/kg, ip after 7 days; type: organism-based; conditions: in vivo, 168 h, time 7 day
Bacteria [11] = test: Induction of bacteria His-tagged P62 to GST-tagged RNF168 protein-protein interaction by co-immunoprecipitation assay
[12] = Clearance in BALB/c mouse at 20 mg/kg; type: ADME, organism-based; conditions: in vivo
[13] = Metabolic stability in human liver microsomes assessed as half life at 0.5 uM by LC-MS analysis; type: ADME, Microsome
HeLa = test: Cytotoxicity against human HeLa cells assessed as reduction in cell viability incubated for 72 hrs by MTS assay; type: functional, cell-based
[14] = Toxicity in BALB/c mouse assessed as animal death at less than 50 mg/kg, ip after 7 days; type: organism-based; conditions: in vivo, 168 h, time 7 day
[15] = Toxicity in BALB/c nude mouse assessed as animal death 50 mg/kg, ip after 7 days; type: organism-based; conditions: in vivo, 168 h, time 7 day
[16] = molecular target: T2, Glucocorticoid receptor (Homo sapiens) (UniProt P04150); test: Inhibition of GR (unknown origin) at 10 uM
T2 sequence (whole entry): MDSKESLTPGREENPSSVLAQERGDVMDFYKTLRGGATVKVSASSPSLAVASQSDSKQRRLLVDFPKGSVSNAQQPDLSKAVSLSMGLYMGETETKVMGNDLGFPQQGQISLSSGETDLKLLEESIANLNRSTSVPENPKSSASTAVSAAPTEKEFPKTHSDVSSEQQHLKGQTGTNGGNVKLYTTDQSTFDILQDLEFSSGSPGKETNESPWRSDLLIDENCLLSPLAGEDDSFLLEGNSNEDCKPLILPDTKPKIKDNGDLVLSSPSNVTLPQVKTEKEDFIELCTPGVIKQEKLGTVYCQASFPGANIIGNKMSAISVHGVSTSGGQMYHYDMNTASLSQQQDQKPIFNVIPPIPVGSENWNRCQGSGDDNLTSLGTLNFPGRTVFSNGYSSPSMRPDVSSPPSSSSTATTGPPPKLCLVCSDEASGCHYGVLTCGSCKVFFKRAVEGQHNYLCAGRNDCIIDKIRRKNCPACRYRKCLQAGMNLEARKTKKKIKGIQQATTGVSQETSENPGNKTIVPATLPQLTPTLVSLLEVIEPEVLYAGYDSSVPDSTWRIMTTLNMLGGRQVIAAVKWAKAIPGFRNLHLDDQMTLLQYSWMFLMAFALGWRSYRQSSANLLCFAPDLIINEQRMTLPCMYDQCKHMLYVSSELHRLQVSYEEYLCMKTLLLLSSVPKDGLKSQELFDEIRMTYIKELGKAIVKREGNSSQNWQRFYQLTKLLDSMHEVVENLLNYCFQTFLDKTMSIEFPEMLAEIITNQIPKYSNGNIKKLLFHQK

Bacteria [17] = test: Induction of bacteria His-tagged P62 to GST-tagged RNF168 protein-protein interaction assessed as decrease in H2A ubiquitination level
[18] = Toxicity in BALB/c mouse assessed as diarrhea 50 mg/kg, ip after 7 days; type: organism-based; conditions: in vivo, 168 h, time 7 day
[19] = Half life in BALB/c mouse at 20 mg/kg; type: ADME, organism-based; conditions: in vivo
HCT-116 [20] = test: Induction of cell cycle arrest in human HCT-116 cells assessed as accumulation at G0/G1 phase at 2 uM after 24 hrs by propidium iodide-staining based flow cytometry (reference value: 58.01 +/- 1.77%); type: functional
U2OS [21] = test: Induction of x-ray sensitivity in human U2OS cells; type: functional, cell-based
[22] = Metabolic stability in human liver microsomes assessed as clearance at 0.5 uM by LC-MS analysis; type: ADME, Microsome
Sequestosome-1 [23] = molecular target: T1, Sequestosome-1; test: Binding affinity to P62 (unknown origin) by MST assay
[24] = Induction of P62 to RNF168 protein-protein interaction (unknown origin) by MST assay; parameters: species or system Homo sapiens

SMILES: COc1cc(-n2cc(-c3ccc4nc(N)nc(N)c4c3)nn2)cc(OC)c1OC
- Activity [1]: Toxic
- half-life [2]: 31 h
- clearance [3]: 276 mL/min/kg
- Activity (HCT-116 [4]): 29.33%
- Activity (HCT-116 [5]): Dde
- Activity (Sequestosome-1 [6]): Active
- Activity [7]: Toxic
- inhibition (U2OS [8]): Dde
- Cmax [9]: 26.1 ng/mL
- Activity [10]: Non-Toxic
- Activity (Bacteria [11]): Active
- clearance [12]: 243 mL/min/kg
- half-life at 0.5 µM [13]: 7.17 h
- IC50 (HeLa): 2480 nM
- Activity [14]: Non-Toxic
- Activity [15]: Toxic
- inhibition [16]: Active
- Activity (Bacteria [17]): Active
- Activity [18]: Toxic
- half-life [19]: 22.1 h
- Activity (HCT-116 [20]): 52.1%
- Activity (U2OS [21]): Active
- CLH [22]: 1.87 mL/min
- Kd (Sequestosome-1 [23]): 1490 nM
- Kd [24]: 890 nM
